Data: patent US5053404A, “Novel steroid derivatives, pharmaceutical compositions containing them and process for preparing same” (Richter Gedeon Vegyeszeti Gyar R. T., priority 1989, dated 1991)

Experiments:
[1] = Comparative acute toxicity (LD50), mice; settings: mouse, in vivo, 2-week observation
Method: (§1) 1) Comparative study on the acute toxicity
(§2) Animal groups consisting of 10 CFLP mice or RG Hann Wistar rats each of both sexes were used. The doses causing the death of 50% of the animals (LD50 values) within a 2-week observation period following subcutaneous (s.c.) or oral (p.o.) administration were determined.

thymus [2] = test: Thymus involution (systemic side effect) in croton oil-induced contact dermatitis model; format: in vivo, rat; settings: 48th hour
Text: (§3) Two principal (essential) demands are set up against topically used steroid antiinflammatory drugs: a) they should be as active as possible in various animal experiments used for investigating the antiinflammatory action; and b) they should induce the lowest harmful systemic side effect. This latter effect can be well characterized by the thymus weight-decreasing action (involution). The possibly lowest toxicity (i.e. the possibly highest LD50 value) is an essential demand for any active agent (drug) used in therapy.
(§4) 2) The croton oil-induced contact dermatitis model
(§5) Infantile female rats weighing 45 to 55 g were used. Animals had previously been selected for this test, the ear weight of which increased at least by 100% under effect of a treatment with 2% croton oil.
(§6) The test compounds were dissolved in a 2% croton oil mixture in various concentrations and then applied onto the ears of the animals. The control group was treated only with the croton oil inducing inflammation. Six hours after treatment the ears of the animals were cut off and weighed. For evaluation, the diminution of the ear weight increase was expressed as "percentage of inhibition", in comparison to the control treated with croton oil only. In the 48th hour the thymi of the animals were excised and the harmful systemic side effect of the test compounds was evaluated by comparing their thymus weight to that of the control animals.

local granuloma sac = test: Local granuloma sac model, exudate (antiinflammatory effect); format: in vivo, rat; settings: for Exudate / Inhibition (decrease in volume of exudate): 10th day; for Inhibition (decrease in volume of exudate): vs control; for Relative activity: relative to budesonide = 100, on 2.00 μg/sac line
Method: (§7) 3) The local granuloma sac model
This method was used to investigate the antiexudative action of the topically administered glucocorticoids.
Groups consisting of 10 female RG Hann Wistar rats each weighing 130 to 150 g were used. […] After 5 days the content of the sac was removed by suction and once 3 doses each of the glucocorticoids to be tested or budesonide respectively, in a volume of 0.5 ml suspension in Tween 80 were administered by an injection syringe. On the 10th day following the start of the experiment the animals were sacrificed and the exudate liquid of the sac (expressed as ml) was measured. The percentage of the antiinflammatory effect was calculated based on the decrease in the volume of exudate related to that of the control.

thymus [3] = test: Thymus involution (systemic side effect) in local granuloma sac model; format: in vivo, rat; settings: 10th day
Text: as §3, §7
Groups consisting of 10 female RG Hann Wistar rats each weighing 130 to 150 g were used. After shaving the back of the animals 25 ml of air were injected beneath the back skin and 1 ml of 2% croton oil inducing inflammation was introduced to the air sac. After 5 days the content of the sac was removed by suction and once 3 doses each of the glucocorticoids to be tested or budesonide respectively, in a volume of 0.5 ml suspension in Tween 80 were administered by an injection syringe. On the 10th day following the start of the experiment the animals were sacrificed and the exudate liquid of the sac (expressed as ml) was measured. The percentage of the antiinflammatory effect was calculated based on the decrease in the volume of exudate related to that of the control.
Then, the thymi of the animals were excised and the harmful systemic side effect of the test compounds was calculated as a percentage based on the comparison of the thymus weight of animals treated with the test compounds to that of the untreated control group.

experimental asthma = test: Experimental asthma model (ovalbumin); format: in vivo, guinea-pig; settings: 50 mg/kg i.p. 20 hours before i.v. ovalbumin provocation; for Dyspnoea (percentage occurrence): control 33; for Survival: control 66
Text: 4) The experimental asthma model
This test was used to investigate the antiasthmatic effect of the test compounds.
It is known that by ovalbumin (OA) treatment an experimental asthma can be induced on guinea-pigs which is accompanied by dyspnoea and causes the death of the animals in severe cases. This test is useful to detect an eventual antiasthmatic effect of the test compounds.
Guinea-pigs of both sexes weighing 300 to 400 g each were used. The experimental animals were sensitized by i.p. ovalbumin (10/ μg of OA+100 mg of aluminum hydroxide/animal) and after 30 days they were provoked by the intravenous (i.v.) administration of 100 mg/kg of OA. Both the test compounds and budesonide used as reference substance were given 50 mg/kg i.p. dose 20 hours before the provocation. The percentage occurrence of dyspnoea and the survival were observed.

[4] = tested on: croton oil-induced contact dermatitis; test: Croton oil-induced contact dermatitis model, ear weight; format: in vivo, rat; settings: for Ear weight / Inhibition (of ear weight increase): topical on ear, 6 hours; for Inhibition (of ear weight increase): vs croton oil control; for Relative activity: relative to budesonide = 100, on 10 μg/ml line
Method: as §4, §5, §6

[5] = Comparative acute toxicity (LD50), rats; settings: rat, in vivo, 2-week observation
Method: as §1, §2

Compound	LD50 at 336 h ([1]; po, female) [mg/kg]	LD50 at 336 h ([1]; po, male) [mg/kg]	LD50 at 336 h ([1]; sc, female) [mg/kg]	LD50 at 336 h ([1]; sc, male) [mg/kg]	Thymus involution (thymus [2]; 1 μg/ml topical on ear) [%]	Thymus involution (thymus [2]; 10 μg/ml topical on ear) [%]	Thymus involution (thymus [2]; 100 μg/ml topical on ear) [%]	Exudate (local granuloma sac; 0.22 μg/sac) [mL]	Inhibition (decrease in volume of exudate) (local granuloma sac; 0.22 μg/sac) [%]	Exudate (local granuloma sac; 2.00 μg/sac) [mL]	Inhibition (decrease in volume of exudate) (local granuloma sac; 2.00 μg/sac) [%]	Exudate (local granuloma sac; 18.00 μg/sac) [mL]	Inhibition (decrease in volume of exudate) (local granuloma sac; 18.00 μg/sac) [%]	Relative activity (local granuloma sac)	Thymus involution (thymus [3]; 0.22 μg/sac) [%]	Thymus involution (thymus [3]; 2.00 μg/sac) [%]	Thymus involution (thymus [3]; 18.00 μg/sac) [%]	Dyspnoea (percentage occurrence) (experimental asthma) [%]	Survival (experimental asthma) [%]	Ear weight ([4]; 1 μg/ml in 2% croton oil) [mg]	further results
CCCC1O[C@@H]2C[C@H]3[C@@H]4CCC5=CC(=O)C=C[C@]5(C)[C@H]4[C@@H](O)C[C@]3(C)[C@]2(C(=O)CO)O1 (stereo partly drawn) [Budesonide, (22RS)-11β,21-dihydroxy-16α,17-butylidenedioxypregna-1,4-dien-3,20-dione, reference compound]	1360	1080	109	131	9.2	3.9	26.1	6.38 ± 0.4	49.89	4.00 ± 0.3	68.58	1.84 ± 0.5	85.55	100	0	0	24.43	20	60	144.71 ± 2.0	Inhibition (of ear weight increase) ([4]; 1 μg/ml): 19.43%; Ear weight ([4]; 10 μg/ml in 2% croton oil): 127.78 ± 2.0 mg; Inhibition (of ear weight increase) ([4]; 10 μg/ml): 39.53%; Ear weight ([4]; 100 μg/ml in 2% croton oil): 117.07 ± 2.7 mg; Inhibition (of ear weight increase) ([4]; 100 μg/ml): 52.24%; Relative activity [4]: 100; LD50 at 336 h ([5]; po, female): 2110 mg/kg; LD50 at 336 h ([5]; po, male): 3400 mg/kg; LD50 at 336 h ([5]; sc, female): 71.5 mg/kg; LD50 at 336 h ([5]; sc, male): 59.4 mg/kg
CC(C)C1O[C@@H]2C=C3[C@@H]4CCC5=CC(=O)C=C[C@]5(C)[C@H]4[C@@H](O)C[C@]3(C)[C@]2(C(=O)CO)O1 (stereo partly drawn) [Ex. No. 6, 11β,16α,17,21-tetrahydroxypregna-1,4,14-trien-3,20-dion-16,17-cyclic isobutyraldehyde acetal]	2790	2930	634	333	0	1.7	0	6.52 ± 0.6	48.79	5.08 ± 0.4	60.10	1.69 ± 0.3	86.73	71	4.98	4.98	6.22	0	100	144.40 ± 3.5	Inhibition (of ear weight increase) ([4]; 1 μg/ml): 19.80%; Ear weight ([4]; 10 μg/ml in 2% croton oil): 126.90 ± 2.7 mg; Inhibition (of ear weight increase) ([4]; 10 μg/ml): 40.57%; Ear weight ([4]; 100 μg/ml in 2% croton oil): 115.10 ± 2.6 mg; Inhibition (of ear weight increase) ([4]; 100 μg/ml): 54.57%; Relative activity [4]: 118; LD50 at 336 h ([5]; po, female): > 3000 mg/kg; LD50 at 336 h ([5]; po, male): > 4000 mg/kg; LD50 at 336 h ([5]; sc, female): 164 mg/kg; LD50 at 336 h ([5]; sc, male): 162 mg/kg
CCCC1O[C@@H]2C=C3[C@@H]4CCC5=CC(=O)C=C[C@]5(C)[C@H]4[C@@H](O)C[C@]3(C)[C@]2(C(=O)CO)O1 (stereo partly drawn) [Ex. No. 2, 11β,16α,17,21-tetrahydroxypregna-1,4,14-trien-3,20-dion-16,17-cyclic butyraldehyde acetal]	> 4000	> 4000	823	585	0	0	9.8	7.47 ± 0.5	41.32	5.10 ± 0.4	59.94	1.36 ± 0.2	89.32	62	0	0	0	14	43	144.60 ± 2.8	Inhibition (of ear weight increase) ([4]; 1 μg/ml): 19.56%; Ear weight ([4]; 10 μg/ml in 2% croton oil): 131.10 ± 2.7 mg; Inhibition (of ear weight increase) ([4]; 10 μg/ml): 35.59%; Ear weight ([4]; 100 μg/ml in 2% croton oil): 118.20 ± 2.2 mg; Inhibition (of ear weight increase) ([4]; 100 μg/ml): 50.90%; Relative activity [4]: 78; LD50 at 336 h ([5]; po, female): > 3000 mg/kg; LD50 at 336 h ([5]; po, male): > 4000 mg/kg; LD50 at 336 h ([5]; sc, female): 843 mg/kg; LD50 at 336 h ([5]; sc, male): 1210 mg/kg
